Laboratory results taken from the CheMixHub ionic liquid set.

Assay: xn = mol fraction of the nth substance listed
Settings: 101 kPa

CC(=O)Oc1ccccc1C(=O)O + CC#N + CCCCCC[n+]1ccn(C)c1.[Br-]
viscosity [mPa·s]
Settings	288.15 K	298.15 K	308.15 K	318.15 K
x1 = 0.001647, x3 = 0	0.394	0.349	0.316	0.292
x1 = 0.001682, x3 = 0.004167	0.408	0.37	0.336	0.309
x1 = 0.001814, x3 = 0.0117	0.434	0.393	0.372	0.343
x1 = 0.001864, x3 = 0.008116	0.431	0.388	0.353	0.324
x1 = 0.00335, x3 = 0.00416	0.412	0.373	0.34	0.313
x1 = 0.003412, x3 = 0	0.398	0.353	0.319	0.295
x1 = 0.003448, x3 = 0.01168	0.437	0.396	0.376	0.346
x1 = 0.003521, x3 = 0.008102	0.435	0.391	0.356	0.327
x1 = 0.004495, x3 = 0	0.402	0.355	0.322	0.297
x1 = 0.004647, x3 = 0.004154	0.416	0.376	0.343	0.315
x1 = 0.004832, x3 = 0.01167	0.441	0.399	0.38	0.349
x1 = 0.004834, x3 = 0.008092	0.438	0.395	0.359	0.33
x1 = 0.00569, x3 = 0	0.405	0.358	0.325	0.3
x1 = 0.005813, x3 = 0.004149	0.42	0.38	0.346	0.317
x1 = 0.005963, x3 = 0.008083	0.441	0.398	0.363	0.333
x1 = 0.006109, x3 = 0.01165	0.444	0.402	0.383	0.352
x1 = 0.006963, x3 = 0	0.408	0.362	0.328	0.303
x1 = 0.007083, x3 = 0.004144	0.423	0.383	0.349	0.32
x1 = 0.007249, x3 = 0.008072	0.444	0.401	0.366	0.335
x1 = 0.007314, x3 = 0.01164	0.448	0.406	0.386	0.355
x1 = 0.00845, x3 = 0	0.412	0.365	0.331	0.306
x1 = 0.008753, x3 = 0.004137	0.428	0.387	0.354	0.324
x1 = 0.008914, x3 = 0.008059	0.448	0.405	0.369	0.339
x1 = 0.00934, x2 = 0.979	0.452	0.41	0.39	0.359
x1 = 0.009969, x3 = 0	0.416	0.369	0.334	0.309
x1 = 0.009979, x3 = 0.004132	0.432	0.39	0.356	0.327
x1 = 0.01021, x2 = 0.9782	0.455	0.412	0.392	0.361
x1 = 0.01031, x3 = 0.008047	0.451	0.408	0.372	0.342
x1 = 0.01098, x3 = 0	0.419	0.371	0.337	0.311
x1 = 0.01114, x3 = 0.004127	0.436	0.393	0.359	0.33
x1 = 0.01158, x3 = 0.008037	0.454	0.411	0.375	0.345
x1 = 0.01173, x2 = 0.9767	0.458	0.416	0.396	0.364
x1 = 0.01219, x3 = 0	0.422	0.375	0.34	0.314
x1 = 0.0126, x3 = 0.004121	0.44	0.396	0.362	0.333
x1 = 0.01261, x2 = 0.9794	0.458	0.414	0.378	0.348
x1 = 0.01337, x2 = 0.9751	0.462	0.42	0.4	0.368
